Legend:
[1] = biological target: T1, Amine oxidase [flavin-containing] A (Homo sapiens, UniProt P21397); test: Inhibition of recombinant human MAO-A expressed in Sf9 cells using p-tyramine as substrate preincubated for 15 mins followed by substrate addition for 60 mins by […] assay
T1 sequence (P21397 whole entry): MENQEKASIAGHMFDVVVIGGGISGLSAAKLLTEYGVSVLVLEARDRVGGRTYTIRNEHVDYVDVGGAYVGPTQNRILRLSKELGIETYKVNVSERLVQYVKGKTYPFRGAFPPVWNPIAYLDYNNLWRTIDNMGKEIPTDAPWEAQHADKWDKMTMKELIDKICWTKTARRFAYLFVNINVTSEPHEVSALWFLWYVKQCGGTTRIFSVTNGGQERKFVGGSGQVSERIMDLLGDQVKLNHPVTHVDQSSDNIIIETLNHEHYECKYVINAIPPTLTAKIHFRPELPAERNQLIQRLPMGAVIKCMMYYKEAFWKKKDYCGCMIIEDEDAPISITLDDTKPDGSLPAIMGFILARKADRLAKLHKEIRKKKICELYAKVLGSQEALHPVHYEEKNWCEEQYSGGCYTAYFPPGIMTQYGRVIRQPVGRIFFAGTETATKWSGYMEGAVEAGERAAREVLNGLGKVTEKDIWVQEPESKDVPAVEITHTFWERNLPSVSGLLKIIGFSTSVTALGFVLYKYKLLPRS

[2] = biological target: T2, Amine oxidase [flavin-containing] B (Homo sapiens, UniProt P27338); test: Inhibition of recombinant human MAO-B expressed in Sf9 cells using benzylamine as substrate preincubated for 15 mins followed by substrate addition for 60 mins by Luminex assay; assay type: cell-based
T2 sequence (P27338 whole entry): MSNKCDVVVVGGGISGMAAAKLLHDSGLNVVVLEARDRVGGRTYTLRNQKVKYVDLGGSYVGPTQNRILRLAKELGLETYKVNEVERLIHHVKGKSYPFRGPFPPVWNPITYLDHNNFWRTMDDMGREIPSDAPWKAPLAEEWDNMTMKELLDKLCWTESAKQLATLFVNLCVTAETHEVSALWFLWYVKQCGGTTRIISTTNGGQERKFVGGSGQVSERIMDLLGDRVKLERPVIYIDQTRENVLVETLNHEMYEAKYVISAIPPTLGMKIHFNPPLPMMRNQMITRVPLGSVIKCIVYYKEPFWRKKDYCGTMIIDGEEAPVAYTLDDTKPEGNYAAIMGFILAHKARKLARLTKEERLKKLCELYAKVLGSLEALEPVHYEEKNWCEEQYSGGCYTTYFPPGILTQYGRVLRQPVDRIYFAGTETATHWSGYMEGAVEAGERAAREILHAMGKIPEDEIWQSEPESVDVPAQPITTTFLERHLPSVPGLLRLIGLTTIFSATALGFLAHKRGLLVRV

[3] = species on record: Homo sapiens; test: Selectivity index, ratio of IC50 for recombinant human MAO-A to IC50 for recombinant human MAO-B

With `C#CCN(Cc1ccc(OCc2cccc(F)c2)cc1F)[C@@H](C)C(N)=O` the IC50 [1] was 8710 nM, the IC50 [2] was 93 nM and the Ratio IC50 [3] was 94.
`C[C@H](NCc1ccc(OCc2cccc(F)c2)cc1C1CC1)C(N)=O` was tested, and the IC50 [1] was 75200 nM, the IC50 [2] was 1660 nM and the Ratio IC50 [3] was 45.
Work on `NC(=O)C1CCN1Cc1ccc(OCc2cccc(F)c2)cc1` (racemic) yielded an IC50 [1] of 18000 nM, an IC50 [2] of 46 nM and a Ratio IC50 [3] of 391.
Work on `C#CCN(Cc1ccc(OCc2cccc(F)c2)cc1)[C@@H](C)C(N)=O` yielded an IC50 [1] of 7790 nM, an IC50 [2] of 530 nM and a Ratio IC50 [3] of 15.
In the case of `C[C@H](NCc1ccc(OCc2cccc(F)c2)cc1)C(=O)NCCN1CCOCC1`, the IC50 [2] is reported as over 10000 nM.
With `NC(=O)[C@@H]1CCN1Cc1ccc(OCc2cccc(F)c2)cc1Cl` the IC50 [1] was 2130 nM, the IC50 [2] was 35 nM and the Ratio IC50 [3] was 61.
In the case of `NC(=O)C1CN(Cc2ccc(OCc3cccc(F)c3)cc2)C1`, the IC50 [1] is reported as over 10000 nM, the IC50 [2] is reported as 1420 nM and the Ratio IC50 [3] is reported as over 7.
`NC(=O)[C@@H]1CC(F)(F)CN1Cc1ccc(OCc2cccc(F)c2)cc1` was tested, and the IC50 [1] was 14500 nM, the IC50 [2] was 1070 nM and the Ratio IC50 [3] was 14.
With `NC(=O)[C@@H]1COCCN1Cc1ccc(OCc2cccc(F)c2)cc1F` the IC50 [1] was 57600 nM, the IC50 [2] was 2870 nM and the Ratio IC50 [3] was 20.
`C#CCN(Cc1ccc(OCc2cccc(F)c2)cc1Cl)[C@@H](C)C(N)=O` was tested, and the IC50 [1] was 5590 nM, the IC50 [2] was 68 nM and the Ratio IC50 [3] was 82.
`CC1(C)C[C@@H](C(N)=O)N(Cc2ccc(OCc3cccc(F)c3)cc2)C1` gave an IC50 [1] of 17500 nM, an IC50 [2] of 1420 nM and a Ratio IC50 [3] of 12.
Compound `C[C@H](NCc1ccc(OCc2cccc(F)c2)cc1Cl)C(N)=O` has an IC50 [1] of 12000 nM, an IC50 [2] of 28 nM and a Ratio IC50 [3] of 427.
With `CC1(C)C[C@@H](C(N)=O)N(Cc2ccc(OCc3cccc(F)c3)cc2F)C1` the IC50 [2] was 6350 nM.
In the case of `NC(=O)[C@@H]1CCCN1Cc1ccc(OCc2cccc(F)c2)cc1`, the IC50 [1] is reported as 34200 nM, the IC50 [2] is reported as 204 nM and the Ratio IC50 [3] is reported as 168.
Compound `C#CCN(Cc1ccc(OCc2cccc(F)c2)cc1C)[C@@H](C)C(N)=O` has an IC50 [1] of 6400 nM, an IC50 [2] of 320 nM and a Ratio IC50 [3] of 20.
`Cc1cc(OCc2cccc(F)c2)ccc1CN1CC[C@H]1C(N)=O` showed an IC50 [1] of 8650 nM, an IC50 [2] of 258 nM and a Ratio IC50 [3] of 34.
`NC(=O)[C@@H]1COCCN1Cc1ccc(OCc2cccc(F)c2)cc1` gave an IC50 [2] of 5410 nM.
`C#CCN(C)C(=O)[C@H](C)NCc1ccc(OCc2cccc(F)c2)cc1` was tested, and the IC50 [2] was over 10000 nM.
Work on `NC(=O)[C@@H]1CCN1Cc1ccc(OCc2cccc(F)c2)cc1` yielded an IC50 [1] of 26800 nM, an IC50 [2] of 21 nM and a Ratio IC50 [3] of 1280.
In the case of `Cc1cc(OCc2cccc(F)c2)ccc1CN[C@@H](C)C(N)=O`, the IC50 [1] is reported as over 10000 nM, the IC50 [2] is reported as 69 nM and the Ratio IC50 [3] is reported as over 140.
`C[C@H](NCc1ccc(OCc2cccc(F)c2)cc1F)C(N)=O` gave an IC50 [1] of over 10000 nM, an IC50 [2] of 61 nM and a Ratio IC50 [3] of over 163.
In the case of `NC(=O)[C@@H]1CCN1Cc1ccc(OCc2cccc(F)c2)cc1F`, the IC50 [1] is reported as 18600 nM, the IC50 [2] is reported as 26 nM and the Ratio IC50 [3] is reported as 715.

Reference: ChEMBL document CHEMBL4699654, “Computational Fragment-Based Design Facilitates Discovery of Potent and Selective Monoamine Oxidase-B (MAO-B) Inhibitor” (J Med Chem, 2020)
